Reference: patent US20260049076A1, “Tertiary Amine Substituted Bicyclic Compounds Useful as T Cell Activators” (BRISTOL-MYERS SQUIBB COMPANY, priority 2022, published 2026)

Assays:
DGKzeta = DGKzeta (Homo sapiens, UniProt Q13574); assay: Translocation DGKzeta; format: cell-based
DGKalpha = DGKalpha (Homo sapiens, UniProt P23743); assay: Translocation DGKalpha; format: cell-based
human DGKζ = molecular target: T1, human DGKζ (Homo sapiens, UniProt Q13574); assay: In vitro DGK inhibition assay, DGKζ liposome (LIPGLO) assay; format: biochemical; conditions: read-out: Enzyme Inhibition DGKzeta IC50
T1 construct: TVMV protease cleavage site (C); Hexa-His (C); made in house; host or cells: Sf9 insect cells (baculovirus)
Outline: (§1)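 Baculovirus/Sf9-expressed His-tagged human DGKα or DGKζ (5 nM) on extruded liposomes (2 mM PS, 0.25 mM DAG, 2.75 mM PC) in MOPS pH 7.5 with MgCl2, CaCl2 and 150 μM ATP, 1 h.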

human DGKα = molecular target: T2, human DGKα (Homo sapiens, UniProt P23743); assay: In vitro DGK inhibition assay, DGKα liposome (LIPGLO) assay; format: biochemical; conditions: read-out: Enzyme Inhibition DGKalpha IC50
T2 construct: TVMV protease cleavage site (C); Hexa-His (C); made in house; host or cells: Sf9 insect cells (baculovirus)
Outline: as §1

Sequence of DGKalpha (P23743 whole entry): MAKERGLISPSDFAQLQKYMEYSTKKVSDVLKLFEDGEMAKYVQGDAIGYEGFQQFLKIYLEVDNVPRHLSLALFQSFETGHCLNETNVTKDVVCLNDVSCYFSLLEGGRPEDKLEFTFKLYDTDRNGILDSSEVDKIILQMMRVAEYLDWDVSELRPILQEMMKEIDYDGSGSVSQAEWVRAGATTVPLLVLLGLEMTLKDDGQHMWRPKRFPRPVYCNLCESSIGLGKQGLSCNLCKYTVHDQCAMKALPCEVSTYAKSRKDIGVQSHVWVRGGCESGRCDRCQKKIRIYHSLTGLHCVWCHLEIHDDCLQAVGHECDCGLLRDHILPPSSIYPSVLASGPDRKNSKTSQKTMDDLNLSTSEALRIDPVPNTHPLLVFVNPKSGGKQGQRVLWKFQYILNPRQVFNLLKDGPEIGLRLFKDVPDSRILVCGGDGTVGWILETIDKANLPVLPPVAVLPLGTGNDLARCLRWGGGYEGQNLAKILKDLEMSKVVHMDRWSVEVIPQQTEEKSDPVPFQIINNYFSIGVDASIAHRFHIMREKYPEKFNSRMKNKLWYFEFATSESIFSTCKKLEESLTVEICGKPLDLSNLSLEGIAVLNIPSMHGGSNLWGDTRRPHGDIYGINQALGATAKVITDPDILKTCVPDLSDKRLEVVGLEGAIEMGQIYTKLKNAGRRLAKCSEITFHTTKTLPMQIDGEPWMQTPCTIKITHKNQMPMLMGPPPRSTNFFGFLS
T2 sequence (P23743 with tags, fused parts or gaps): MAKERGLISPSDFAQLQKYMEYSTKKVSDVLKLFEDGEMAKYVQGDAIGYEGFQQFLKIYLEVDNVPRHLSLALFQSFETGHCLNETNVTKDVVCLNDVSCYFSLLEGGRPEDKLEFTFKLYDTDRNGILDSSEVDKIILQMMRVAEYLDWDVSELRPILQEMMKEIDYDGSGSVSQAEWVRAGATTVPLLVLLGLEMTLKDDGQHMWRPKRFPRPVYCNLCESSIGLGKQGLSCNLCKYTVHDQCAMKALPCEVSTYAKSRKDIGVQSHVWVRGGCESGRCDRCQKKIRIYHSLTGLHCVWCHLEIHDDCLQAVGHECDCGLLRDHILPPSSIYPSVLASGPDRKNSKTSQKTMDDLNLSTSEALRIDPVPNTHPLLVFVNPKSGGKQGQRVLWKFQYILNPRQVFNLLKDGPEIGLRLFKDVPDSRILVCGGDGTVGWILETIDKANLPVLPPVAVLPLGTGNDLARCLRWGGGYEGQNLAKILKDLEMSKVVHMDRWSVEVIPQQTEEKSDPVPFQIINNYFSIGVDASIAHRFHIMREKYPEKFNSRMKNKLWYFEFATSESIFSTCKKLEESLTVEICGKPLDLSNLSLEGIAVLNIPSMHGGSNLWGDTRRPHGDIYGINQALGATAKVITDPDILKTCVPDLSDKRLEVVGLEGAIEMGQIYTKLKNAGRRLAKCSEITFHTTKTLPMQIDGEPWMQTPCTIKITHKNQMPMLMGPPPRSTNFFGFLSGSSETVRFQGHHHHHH
T1 sequence (Q13574 with tags, fused parts or gaps isoform Q13574-4): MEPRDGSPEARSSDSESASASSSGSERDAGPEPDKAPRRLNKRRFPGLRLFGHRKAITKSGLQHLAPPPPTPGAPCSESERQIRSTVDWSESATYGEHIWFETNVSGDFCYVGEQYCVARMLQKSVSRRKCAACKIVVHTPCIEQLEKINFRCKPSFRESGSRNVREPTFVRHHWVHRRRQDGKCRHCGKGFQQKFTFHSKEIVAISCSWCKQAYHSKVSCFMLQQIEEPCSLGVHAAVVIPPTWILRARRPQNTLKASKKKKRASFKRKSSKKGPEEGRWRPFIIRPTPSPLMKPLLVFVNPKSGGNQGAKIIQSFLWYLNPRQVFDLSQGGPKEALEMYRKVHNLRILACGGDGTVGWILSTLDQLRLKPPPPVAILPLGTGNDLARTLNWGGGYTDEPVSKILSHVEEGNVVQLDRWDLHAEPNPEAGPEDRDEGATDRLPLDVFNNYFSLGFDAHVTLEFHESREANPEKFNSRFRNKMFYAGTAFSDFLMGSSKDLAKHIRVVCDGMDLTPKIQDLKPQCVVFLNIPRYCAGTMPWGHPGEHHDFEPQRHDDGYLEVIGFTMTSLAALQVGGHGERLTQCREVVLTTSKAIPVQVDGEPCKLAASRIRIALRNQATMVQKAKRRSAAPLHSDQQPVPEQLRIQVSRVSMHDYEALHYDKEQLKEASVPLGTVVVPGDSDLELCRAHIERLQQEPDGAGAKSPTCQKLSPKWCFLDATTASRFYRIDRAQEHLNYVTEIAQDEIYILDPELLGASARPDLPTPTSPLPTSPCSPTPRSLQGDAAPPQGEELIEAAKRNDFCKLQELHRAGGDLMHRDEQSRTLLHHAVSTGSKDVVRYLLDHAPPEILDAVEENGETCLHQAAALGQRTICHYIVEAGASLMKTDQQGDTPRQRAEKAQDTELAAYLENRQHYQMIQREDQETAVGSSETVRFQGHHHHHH
Sequence of DGKzeta (Q13574 whole entry): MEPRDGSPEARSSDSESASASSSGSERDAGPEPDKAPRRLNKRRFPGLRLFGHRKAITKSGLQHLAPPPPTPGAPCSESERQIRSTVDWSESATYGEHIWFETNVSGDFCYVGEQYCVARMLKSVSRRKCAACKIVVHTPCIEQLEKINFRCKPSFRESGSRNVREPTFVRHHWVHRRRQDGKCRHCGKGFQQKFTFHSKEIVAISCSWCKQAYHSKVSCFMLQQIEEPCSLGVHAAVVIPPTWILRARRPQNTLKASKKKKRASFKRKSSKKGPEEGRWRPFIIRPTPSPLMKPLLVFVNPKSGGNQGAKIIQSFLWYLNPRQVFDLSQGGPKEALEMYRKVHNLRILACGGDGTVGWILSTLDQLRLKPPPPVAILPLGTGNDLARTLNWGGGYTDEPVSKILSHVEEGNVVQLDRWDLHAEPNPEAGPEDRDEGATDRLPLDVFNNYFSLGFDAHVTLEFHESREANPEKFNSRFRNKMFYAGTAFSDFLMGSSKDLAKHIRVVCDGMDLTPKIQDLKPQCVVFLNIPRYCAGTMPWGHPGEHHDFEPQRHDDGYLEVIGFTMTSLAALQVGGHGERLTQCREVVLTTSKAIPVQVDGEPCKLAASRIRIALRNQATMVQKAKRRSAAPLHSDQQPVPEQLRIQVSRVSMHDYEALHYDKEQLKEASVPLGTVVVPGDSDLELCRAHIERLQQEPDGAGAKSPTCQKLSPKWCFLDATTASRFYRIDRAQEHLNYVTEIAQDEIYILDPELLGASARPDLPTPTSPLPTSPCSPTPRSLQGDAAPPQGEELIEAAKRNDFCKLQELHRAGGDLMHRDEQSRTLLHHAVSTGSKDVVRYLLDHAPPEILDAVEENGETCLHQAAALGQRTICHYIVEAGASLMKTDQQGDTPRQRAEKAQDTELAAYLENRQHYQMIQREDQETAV

| Structure (SMILES) | EC50 (DGKzeta) [µM] | EC50 (DGKalpha) [µM] | IC50 (human DGKζ) [µM] | IC50 (human DGKα) [µM] |
| --- | --- | --- | --- | --- |
| CC(=O)N(C)c1ccc(N(CC2CC2)c2cc(=O)n(C)c3ccc(C#N)nc23)cc1 [Example 133] | 0.58 | > 3 | 4.4 | > 38 |
| COc1cccc(-c2cc(N(CC3CC3)c3cc(=O)n(C)c4ccc(C#N)nc34)ccc2C2CC2)c1 [Example 129, 8-((6-cyclopropyl-3′-methoxy-[1,1′-biphenyl]-3-yl)(cyclopropylmethyl)amino)-5-methyl-6-oxo-5,6-dihydro-1,5-naphthyridine-2-carbonitrile] | 0.13 | > 1.5 | > 38 | > 38 |
| Cn1c(=O)cc(N(CC2CC2)c2ccc(C3CC3)c(-c3ccc(F)cc3)c2)c2nc(C#N)ccc21 [Example 127, 8-((6-cyclopropyl-4′-fluoro-[1,1′-biphenyl]-3-yl)(cyclopropylmethyl)amino)-5-methyl-6-oxo-5,6-dihydro-1,5-naphthyridine-2-carbonitrile] | 0.1 | > 3 | 18 | > 38 |
